Results reported in the NIST ThermoML archive (doi:10.1021/je900091b).

Test: xn = mol fraction of the nth substance listed
Details: Liquid

C=C(C)C(=O)OC [methyl methacrylate] + CCCCn1cc[n+](C)c1.F[P-](F)(F)(F)(F)F
Details | mass density [kg/m3] | viscosity [mPa·s]
283.15 K, x1 = 0.0986 | 1360.73 | 434.9
283.15 K, x1 = 0.2094 | 1335.27 | 218.03
283.15 K, x1 = 0.3073 | 1310.42 | 118.57
283.15 K, x1 = 0.4053 | 1282.19 | 64.04
283.15 K, x1 = 0.4977 | 1250.45 | 34.64
283.15 K, x1 = 0.5993 | 1211.21 | 17.78
283.15 K, x1 = 0.7009 | 1164.35 | 8.859
283.15 K, x1 = 0.8003 | 1109.1 | 3.909
283.15 K, x1 = 0.9007 | 1042.12 | 1.719
283.15 K, x1 = 1 | 954.802 | 0.6808
288.15 K, x1 = 0.0986 | 1356.38 | 308.34
288.15 K, x1 = 0.2094 | 1330.98 | 161.21
288.15 K, x1 = 0.3073 | 1306.05 | 91.29
288.15 K, x1 = 0.4053 | 1277.72 | 50.28
288.15 K, x1 = 0.4977 | 1245.87 | 28.16
288.15 K, x1 = 0.5993 | 1206.49 | 14.99
288.15 K, x1 = 0.7009 | 1159.46 | 7.717
288.15 K, x1 = 0.8003 | 1103.97 | 3.485
288.15 K, x1 = 0.9007 | 1036.71 | 1.575
288.15 K, x1 = 1 | 949.097 | 0.6337
293.15 K, x1 = 0.0986 | 1352.04 | 224.88
293.15 K, x1 = 0.2094 | 1326.72 | 122.32
293.15 K, x1 = 0.3073 | 1301.68 | 71.8
293.15 K, x1 = 0.4053 | 1273.26 | 40.3
293.15 K, x1 = 0.4977 | 1241.3 | 23.27
293.15 K, x1 = 0.5993 | 1201.58 | 12.81
293.15 K, x1 = 0.7009 | 1154.07 | 6.781
293.15 K, x1 = 0.8003 | 1098.45 | 3.136
293.15 K, x1 = 0.9007 | 1031.1 | 1.45
293.15 K, x1 = 1 | 943.365 | 0.5899
298.15 K, x1 = 0.0986 | 1347.84 | 168.14
298.15 K, x1 = 0.2094 | 1322.45 | 94.88
298.15 K, x1 = 0.3073 | 1297.32 | 55.22
298.15 K, x1 = 0.4053 | 1268.81 | 32.87
298.15 K, x1 = 0.4977 | 1236.75 | 19.54
298.15 K, x1 = 0.5993 | 1197.09 | 11.07
298.15 K, x1 = 0.7009 | 1149.69 | 6.014
298.15 K, x1 = 0.8003 | 1093.72 | 2.836
298.15 K, x1 = 0.9007 | 1025.87 | 1.342
298.15 K, x1 = 1 | 937.615 | 0.554
303.15 K, x1 = 0.0986 | 1343.67 | 128.46
303.15 K, x1 = 0.2094 | 1318.17 | 75.44
303.15 K, x1 = 0.3073 | 1292.97 | 44.49
303.15 K, x1 = 0.4053 | 1264.37 | 27.22
303.15 K, x1 = 0.4977 | 1232.2 | 16.62
303.15 K, x1 = 0.5993 | 1192.4 | 9.662
303.15 K, x1 = 0.7009 | 1144.81 | 5.374
303.15 K, x1 = 0.8003 | 1088.59 | 2.583
303.15 K, x1 = 0.9007 | 1020.43 | 1.247
303.15 K, x1 = 1 | 931.837 | 0.5248
308.15 K, x1 = 0.0986 | 1339.49 | 100.54
308.15 K, x1 = 0.2094 | 1313.91 | 58.33
308.15 K, x1 = 0.3073 | 1288.62 | 36.45
308.15 K, x1 = 0.4053 | 1259.94 | 22.86
308.15 K, x1 = 0.4977 | 1227.67 | 14.29
308.15 K, x1 = 0.5993 | 1187.73 | 8.505
308.15 K, x1 = 0.7009 | 1139.93 | 4.838
308.15 K, x1 = 0.8003 | 1083.46 | 2.369
308.15 K, x1 = 0.9007 | 1014.97 | 1.165
308.15 K, x1 = 1 | 926.032 | 0.4956
313.15 K, x1 = 0.0986 | 1335.32 | 80.4
313.15 K, x1 = 0.2094 | 1309.66 | 47.27
313.15 K, x1 = 0.3073 | 1284.28 | 30.27
313.15 K, x1 = 0.4053 | 1255.53 | 19.43
313.15 K, x1 = 0.4977 | 1223.15 | 12.43
313.15 K, x1 = 0.5993 | 1183.05 | 7.55
313.15 K, x1 = 0.7009 | 1135.06 | 4.379
313.15 K, x1 = 0.8003 | 1078.32 | 2.175
313.15 K, x1 = 0.9007 | 1009.49 | 1.092
313.15 K, x1 = 1 | 920.185 | 0.4719
318.15 K, x1 = 0.0986 | 1331.15 | 62.99
318.15 K, x1 = 0.2094 | 1305.41 | 38.91
318.15 K, x1 = 0.3073 | 1279.94 | 25.49
318.15 K, x1 = 0.4053 | 1251.13 | 16.71
318.15 K, x1 = 0.4977 | 1218.64 | 10.9
318.15 K, x1 = 0.5993 | 1178.39 | 6.745
318.15 K, x1 = 0.7009 | 1130.19 | 3.99
318.15 K, x1 = 0.8003 | 1073.17 | 2.007
318.15 K, x1 = 0.9007 | 1004 | 1.026
318.15 K, x1 = 1 | 914.317 | 0.4497
323.15 K, x1 = 0.0986 | 1327 | 51.32
323.15 K, x1 = 0.2094 | 1301.17 | 32.45
323.15 K, x1 = 0.3073 | 1275.58 | 21.7
323.15 K, x1 = 0.4053 | 1246.74 | 14.51
323.15 K, x1 = 0.4977 | 1214.13 | 9.64
323.15 K, x1 = 0.5993 | 1173.73 | 6.066
323.15 K, x1 = 0.7009 | 1125.33 | 3.653
323.15 K, x1 = 0.8003 | 1068.01 | 1.868
323.15 K, x1 = 0.9007 | 998.489 | 0.9687
323.15 K, x1 = 1 | 908.405 | 0.4294
328.15 K, x1 = 0.0986 | 1322.85 | 42.36
328.15 K, x1 = 0.2094 | 1296.92 | 27.39
328.15 K, x1 = 0.3073 | 1271.14 | 18.69
328.15 K, x1 = 0.4053 | 1242.36 | 12.71
328.15 K, x1 = 0.4977 | 1209.65 | 8.585
328.15 K, x1 = 0.5993 | 1169.08 | 5.497
328.15 K, x1 = 0.7009 | 1120.46 | 3.362
328.15 K, x1 = 0.8003 | 1062.85 | 1.743
328.15 K, x1 = 0.9007 | 992.98 | 0.9201
328.15 K, x1 = 1 | 902.468 | 0.41
333.15 K, x1 = 0.0986 | 1318.71 | 35.43
333.15 K, x1 = 0.2094 | 1292.66 | 23.38
333.15 K, x1 = 0.3073 | 1267.36 | 16.24
333.15 K, x1 = 0.4053 | 1237.99 | 11.22
333.15 K, x1 = 0.4977 | 1205.17 | 7.691
333.15 K, x1 = 0.5993 | 1164.44 | 4.991
333.15 K, x1 = 0.7009 | 1115.59 | 3.111
333.15 K, x1 = 0.8003 | 1057.67 | 1.629
333.15 K, x1 = 0.9007 | 987.485 | 0.915
333.15 K, x1 = 1 | 896.479 | 0.3938
343.15 K, x1 = 0.0986 | 1310.46 | 25.61
343.15 K, x1 = 0.2094 | 1284.51 | 17.56
343.15 K, x1 = 0.3073 | 1259.32 | 12.57
343.15 K, x1 = 0.4053 | 1229.29 | 8.922
343.15 K, x1 = 0.4977 | 1196.23 | 6.278
343.15 K, x1 = 0.5993 | 1155.17 | 4.187
343.15 K, x1 = 0.7009 | 1105.84 | 2.708
343.15 K, x1 = 0.8003 | 1047.29 | 1.431
343.15 K, x1 = 0.9007 | 976.413 | 0.8545
343.15 K, x1 = 1 | 884.418 | 0.3636
353.15 K, x1 = 0.0986 | 1302.23 | 19.25
353.15 K, x1 = 0.2094 | 1275.98 | 13.65
353.15 K, x1 = 0.3073 | 1250.71 | 10.01
353.15 K, x1 = 0.4053 | 1220.62 | 7.259
353.15 K, x1 = 0.4977 | 1187.32 | 5.224
353.15 K, x1 = 0.5993 | 1145.91 | 3.579
353.15 K, x1 = 0.7009 | 1096.08 | 2.415
353.15 K, x1 = 0.8003 | 1036.87 | 1.272
353.15 K, x1 = 0.9007 | 965.13 | 0.781
353.15 K, x1 = 1 | 872.129 | 0.3398
